Measurements: US20130253056A1, “Continuous Administration of Levodopa and/or Dopa Decarboxylase Inhibitors and Compositions for Same” (NEURODERM, LTD., priority 2009, published 2013)
Values joined by “and” are separate entries in the source; they are usually repeats but may differ in a detail not shown here. Equal values may be shown once. Where a name gives a salt, the structure may show the parent alone. Values belong to the compound of their own block, whether it stands above or below them.

Tests used:
[1] = Pig skin penetration of LDE by patch; assay type: in vivo, pigs; settings: for LD P/WB (%) / LD blood cells (C) / Whole blood (WB) LD / Ratio C/P / Plasma (P) LD: 16 h after patch application; for LD blood cells (C) / Whole blood (WB) LD / Plasma (P) LD / LD concentration in the blood cell fraction higher as compared to LDbzE: pigs; for Ratio C/P: blood cell fraction LD / plasma LD; for LD concentration in the blood cell fraction higher as compared to LDbzE: patch
Procedure: Patch removal occurred at 24 h. […] Both whole blood and plasma were subjected to LD and 3-OMD analysis. […] LD formed in the RBC stay within the RBCs, and is further metabolized to 3-OMD, which is reallocated from the RBCs into the plasma.

[2] = Intradermal delivery of LDE in pigs; assay type: in vivo; settings: intradermal infusion
Procedure: LDEs were infused intradermally for 4 hours. […] Both whole blood and plasma samples were subjected to LD and LDE analysis.

mice = assay: Skin sensitization, LLNA (local lymph node assay); settings: for Median SI / SI / Ind. SI: LLNA mice; for Ind. SI: individual animals
Procedure: Sensitization was tested in mice using a LLNA (local lymph node assay) model for the detection of skin sensitization. […] In another LLNA study, LD Propyl and Benzyl Esters were tested in vehicle containing penetration enhancers.

[3] = Solubility in PBS, flask method; assay type: physicochemical
Procedure: The “flask method” was used to determine the solubility of the test material in phosphate buffered saline (PBS) according to the OECD Guidelines for the Testing of Chemicals. Briefly, the test material was dissolved in PBS at a temperature slightly above the test temperature. When saturation is achieved, the solution is cooled to the test temperature and the mass concentration of the LD alkyl ester in the solution is determined quantitatively by measuring the absorbance of the solution at 280 nm and comparing the readings to a calibration curve of the relevant alkyl ester dissolved in PBS.

[4] = cited from earlier work
[5] = Continuous subcutaneous administration of LD benzyl ester-HCl in pigs; assay type: in vivo; settings: 15% aqueous solution pH 4.7, continuous SC 2 ml/24 h, oral carbidopa q8 h
Procedure: An aqueous solution of 15% LD benzyl ester-HCl, pH 4.7, was continuously administered subcutaneously via an insulin patch pump, 2 ml/24 h. Carbidopa was administered orally q8 h, starting 1 h prior to pump application.

[6] = Continuous subcutaneous carbidopa with or without entacapone, levodopa PK in pigs; assay type: in vivo, female landrace×large white swine; settings: continuous SC 2% carbidopa with 2.5% entacapone, oral LD/CD
Procedure: Plasma levels of L-dopa were measured by HPLC-ECD.

[7] = Transdermal delivery through pig skin ex vivo, Franz cell delivery system; assay type: in vitro ADME, porcine; settings: gel formulations, receiver samples 0, 16, 19 and 22 hours
Procedure: Gel formulations containing CDPE were prepared. Samples were collected from the receiver cell at time 0, 16, 19 and 22 hours after formulation application on to the skin. The amount of CD compounds in the receiver cell fluid was determined by a spectrophotometer at […].

[8] = biological target: T1, dopa-decarboxylases (DDC) (Sus scrofa, UniProt P80041); assay: Inhibition of dopa-decarboxylase activity in vitro; assay type: biochemical; settings: porcine liver homogenate
T1 construct: DDC enzymes were obtained from porcine liver homogenate; from tissue; host or cells: porcine liver homogenate
T1 sequence (P80041 1-486): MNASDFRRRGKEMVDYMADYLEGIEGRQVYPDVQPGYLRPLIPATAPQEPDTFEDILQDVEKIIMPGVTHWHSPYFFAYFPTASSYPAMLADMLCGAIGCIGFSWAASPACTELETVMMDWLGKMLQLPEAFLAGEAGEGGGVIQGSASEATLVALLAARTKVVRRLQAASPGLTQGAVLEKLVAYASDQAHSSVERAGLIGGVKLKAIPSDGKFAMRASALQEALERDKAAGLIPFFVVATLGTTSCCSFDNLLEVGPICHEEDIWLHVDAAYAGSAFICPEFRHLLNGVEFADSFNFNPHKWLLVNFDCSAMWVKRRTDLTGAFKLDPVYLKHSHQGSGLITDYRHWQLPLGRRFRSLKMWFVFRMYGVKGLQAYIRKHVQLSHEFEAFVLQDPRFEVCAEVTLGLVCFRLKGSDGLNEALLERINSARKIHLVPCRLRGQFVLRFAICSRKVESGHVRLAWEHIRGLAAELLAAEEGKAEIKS
Procedure: DDC enzymes were obtained from porcine liver homogenate and their activity was measured by comparing LD concentrations with and without carbidopa propyl ester (CDPE). Liver homogenate preparation was based on the method described by Umezawa et al; (J. Antib. 1975, 28(12):947-52).
All samples were separated on high pressure liquid chromatography columns and the identity and concentration of L-DOPA and dopamine were determined by HP UV-HPLC analysis at […].

SMILES: N[C@@H](Cc1ccc(O)c(O)c1)C(=O)OCc1ccccc1 [LD Benzyl Ester, levodopa benzyl ester]
LD P/WB (%) [1]: 39.1%
LD P/WB (%) ([1]; listed as LDbzE): ~40%
LD blood cells (C) [1]: 2506 ng/mL
Whole blood (WB) LD [1]: 4115 ng/mL
hydrolysis to LD [2]: hydrolyzed to LD faster than LD isopropyl ester

SMILES: CCCOC(=O)[C@@H](N)Cc1ccc(O)c(O)c1 [LD Propyl Ester, levodopa propyl ester]
Median SI (mice; 1M (24%) in DMF): 3.5
SI (mice; 1M (24%) in DMF): 3.6
Ind. SI (mice; 1M (24%) in DMF): 2.32 and 4.55 and 5.12 and 2.44
Ind. SI (mice; 15% in Vehicle (penetration enhancers)): 36.42 and 7.70 and 38.60 and 3.53 and 31.68
Median SI (mice; 15% in Vehicle): 31.7
SI (mice; 15% in Vehicle): 23.6
change of SI when applied using the transdermal formulation (mice; compared with DMF): significantly increased
LD P/WB (%) ([1]; listed as Propyl): 24.7%
LD P/WB (%) ([1]; listed as propyl): 25%
Ratio C/P [1]: 3.0
Ratio C/P ([1]; listed as LDpE): 3
LD blood cells (C) [1]: 4820 ng/mL
Plasma (P) LD [1]: 1584 ng/mL
Whole blood (WB) LD [1]: 6404 ng/mL
LD concentration in the blood cell fraction higher as compared to LDbzE [1]: 1.9 ×
Solubility of LDEs in PBS [3]: 11.238 mg/mL

SMILES: N[C@@H](Cc1ccc(O)c(O)c1)C(=O)O [Levodopa, L-3,4-dihydroxyphenylalanine]
solubility in alcohol, chloroform or ether [4]: practically insoluble
solubility in water [4]: only slightly soluble in water

SMILES: NC(Cc1ccc(O)c(O)c1)C(=O)OCc1ccccc1 (centres unmarked) [LD benzyl ester-HCl]
plasma concentrations of LD [5]: fluctuations of LD concentrations in the plasma coincided with oral carbidopa administration

levels of 3-OMD [6]: effectively reduced
pharmacokinetics of levodopa [6]: did not further extend
SMILES: CCN(CC)C(=O)/C(C#N)=C/c1cc(O)c(O)c([N+](=O)[O-])c1 [entacapone]

SMILES: CCOC(=O)[C@@H](N)Cc1ccc(O)c(O)c1 [LD Ethyl Ester, levodopa ethyl ester]
Median SI (mice; 1M (24%) in DMF): 10.8
SI (mice; 1M (24%) in DMF): 10.7
Ind. SI (mice; 1M (24%) in DMF): 13.31 and 8.22 and 14.45 and 6.65
LD P/WB (%) ([1]; listed as Ethyl): 13.4%
LD P/WB (%) ([1]; listed as ethyl): 13%
Ratio C/P [1]: 6.5
LD blood cells (C) [1]: 6418 ng/mL
Plasma (P) LD [1]: 989 ng/mL
Whole blood (WB) LD [1]: 7407 ng/mL
LD concentration in the blood cell fraction higher as compared to LDbzE [1]: 2.5 ×

SMILES: CCCOC(=O)C(C)(Cc1ccc(O)c(O)c1)NN (centres unmarked) [CDPE, carbidopa propyl ester]
transdermal delivery through full thickness porcine skin [7]: penetrates the skin in an enhancer-dose dependent manner
inhibition of decarboxylation of L-dopa to dopamine [8]: inhibits the decarboxylation of L-dopa to dopamine, in a similar manner to carbidopa and benserazide
